Patent US20240174647A1 (NEURON23, INC., priority 2022, published 2024)

These compounds were tested against wt human LRRK2, catalytic site (Homo sapiens (Human), UniProt Q5S007) (assay: TR-FRET LanthaScreen Tb Kinase Activity Assay (LRRK2 kinase inhibition)). Conditions: 2 nM wt human LRRK2, 400 nM fluorescein-ERM (LRRKtide) peptide, 38 μM ATP, 120 minutes at room temperature.
Format: biochemical
In short: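 LanthaScreen TR-FRET with 2 nM wt human LRRK2 catalytic site, 400 nM fluorescein-ERM (LRRKtide) peptide and 38 µM ATP in Kinase Buffer A; 120 min at room temperature. Phosphorylation detected with EDTA and Tb-anti-pLRRKtide after 60 min; IC50 from emission ratios.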

Chain of wt human LRRK2, catalytic site (Q5S007 1879-2138): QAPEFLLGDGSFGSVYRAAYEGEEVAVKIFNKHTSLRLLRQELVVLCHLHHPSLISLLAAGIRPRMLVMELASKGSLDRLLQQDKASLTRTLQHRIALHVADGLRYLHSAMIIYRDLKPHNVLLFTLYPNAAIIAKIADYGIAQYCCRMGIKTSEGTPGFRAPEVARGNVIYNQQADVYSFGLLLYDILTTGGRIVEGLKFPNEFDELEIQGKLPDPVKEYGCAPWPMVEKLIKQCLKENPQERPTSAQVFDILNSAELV

Which IC50 does the source give for CS(=O)(=O)CCNc1nc(Nc2cccc3c2cnn3S(=O)(=O)C2CC2)ncc1C(F)(F)F [Example 138, N^2-(1-(cyclopropylsulfonyl)-1H-indazol-4-yl)-N^4-(2-(methylsulfonyl)ethyl)-5-(trifluoromethyl)pyrimidine-2,4-diamine] here?
Its IC50 is less than 50 nM.

How did the IC50 turn out when CS(=O)(=O)CCn1ncc2c(Nc3ncc(C(F)(F)F)c(NC4CC4)n3)cccc21 [Example 139, N^4-cyclopropyl-N^2-(1-(2-(methylsulfonyl)ethyl)-1H-indazol-4-yl)-5-(trifluoromethyl)pyrimidine-2,4-diamine] was run?
The IC50 was less than 50 nM.

Which IC50 does the source give for COCCn1ncc2c(Nc3ncc(C(F)(F)F)c(NC(C)C)n3)cccc21 [Example 140, N^4-isopropyl-N^2-[1-(2-methoxyethyl)indazol-4-yl]-5-(trifluoromethyl)pyrimidine-2,4-diamine] here?
The IC50 was less than 50 nM.

How did the IC50 turn out when OCCNc1nc(Nc2cccc3c2cnn3CC(F)F)ncc1C(F)(F)F [Example 141, 2-[[2-[[1-(2,2-difluoroethyl)indazol-4-yl]amino]-5-(trifluoromethyl)pyrimidin-4-yl]amino]ethanol] was run?
The IC50 was less than 50 nM.

FCCNc1nc(Nc2cccc3c2cnn3CC(F)F)ncc1C(F)(F)F [Example 142, N^2-[1-(2,2-difluoroethyl)indazol-4-yl]-N^4-(2-fluoroethyl)-5-(trifluoromethyl) pyrimidine-2,4-diamine] was tested. Which IC50 did it give?
The IC50 was less than 50 nM.

CCS(=O)(=O)n1ncc2c(Nc3ncc(C(F)(F)F)c(NC4CC4)n3)cccc21 [Example 143, N^4-cyclopropyl-N^2-(1-ethylsulfonylindazol-4-yl)-5-(trifluoromethyl)pyrimidine-2,4-diamine] was tested. Which IC50 did it give?
Its IC50 is less than 50 nM.

For CC(C)(C#N)n1ncc2c(Nc3ncc(C(F)(F)F)c(NCCF)n3)cccc21 [Example 144, 2-(4-((4-((2-fluoroethyl)amino)-5-(trifluoromethyl)pyrimidin-2-yl)amino)-1H-indazol-1-yl)-2-methylpropanenitrile], which IC50 is on record?
The IC50 was less than 50 nM.

How did the IC50 turn out when COCCNc1nc(Nc2cccc3c2cnn3S(=O)(=O)C2CC2)ncc1C(F)(F)F [Example 145, N^2-(1-cyclopropylsulfonylindazol-4-yl)-N^4-(2-methoxyethyl)-5-(trifluoromethyl) pyrimidine-2,4-diamine] was run?
Its IC50 is less than 50 nM.

Which IC50 does the source give for CC(C)(O)Cn1ncc2c(Nc3ncc(C(F)(F)F)c(NC4CC4)n3)cccc21 [Example 146, 1-[4-[[4-(cyclopropylamino)-5-(trifluoromethyl)pyrimidin-2-yl]amino]indazol-1-yl]-2-methyl-propan-2-ol] here?
The IC50 was less than 50 nM.

With CCNc1nc(Nc2cccc3c2cnn3CC(F)F)nc2[nH]cc(Cl)c12 [Example 147, 5-chloro-N^2-(1-(2,2-difluoroethyl)-1H-indazol-4-yl)-N^4-ethyl-7H-pyrrolo[2,3-d]pyrimidine-2,4-diamine] as the compound, how does the IC50 read?
The IC50 was less than 50 nM.

How did the IC50 turn out when CS(=O)(=O)n1ncc2c(Nc3ncc(C(F)(F)F)c(N[C@@H]4CCOC4)n3)cccc21 [Example 148, (R)—N^2-(1-(methylsulfonyl)-1H-indazol-4-yl)-N-(tetrahydrofuran-3-yl)-5-(trifluoromethyl)pyrimidine-2,4-diamine] was run?
Its IC50 is less than 50 nM.

CS(=O)(=O)n1ncc2c(Nc3ncc(C(F)(F)F)c(N[C@H]4CCOC4)n3)cccc21 [Example 149, (S)—N^2-(1-(Methylsulfonyl)-1H-indazol-4-yl)-N^4-(tetrahydrofuran-3-yl)-5-(trifluoromethyl)pyrimidine-2,4-diamine] was tested. Which IC50 did it give?
The IC50 was less than 50 nM.

CS(=O)(=O)n1ncc2c(Nc3ncc(C(F)(F)F)c(NC4CCC4)n3)cccc21 [Example 150, N^4-cyclobutyl-N^2-(1-methylsulfonylindazol-4-yl)-5-(trifluoromethyl)pyrimidine-2,4-diamine] was tested. Which IC50 did it give?
Its IC50 is less than 50 nM.

How did the IC50 turn out when CCNc1nc(Nc2cccc3c2cnn3S(C)(=O)=O)nc2[nH]cc(Cl)c12 [Example 151, 5-chloro-N^4-ethyl-N^2-(1-methylsulfonylindazol-4-yl)-7H-pyrrolo[2,3-d]pyrimidine-2,4-diamine] was run?
Its IC50 is less than 50 nM.

Which IC50 does the source give for CCNc1nc(Nc2cccc3c2cnn3S(C)(=O)=O)ncc1Cl [Example 152, 5-chloro-N4-ethyl-N^2-(1-(methylsulfonyl)-1H-indazol-4-yl)pyrimidine-2,4-diamine] here?
Its IC50 is less than 50 nM.

With O=S(=O)(C1CC1)n1ncc2c(Nc3ncc(C(F)(F)F)c(NC4CC4)n3)ccc(F)c21 [Example 153, N^4-cyclopropyl-N^2-(1-(cyclopropylsulfonyl)-7-fluoro-1H-indazol-4-yl)-5-(trifluoromethyl) pyrimidine-2,4-diamine] as the compound, how does the IC50 read?
The IC50 was less than 50 nM.

CCNc1nc(Nc2cccc3c2cnn3C(C)(C)C#N)ncc1C(F)(F)F [Example 154, 2-(4-((4-(ethylamino)-5-(trifluoromethyl)pyrimidin-2-yl)amino)-1H-indazol-1-yl)-2-methylpropanenitrile] was tested. Which IC50 did it give?
The IC50 was less than 50 nM.

With COCCNc1nc(Nc2cccc3c2cnn3C(C)(C)C#N)ncc1C(F)(F)F [Example 155, 2-[4-[[4-(2-methoxyethylamino)-5-(trifluoromethyl)pyrimidin-2-yl]amino]indazol-1-yl]-2-methyl-propanenitrile] as the compound, how does the IC50 read?
The IC50 was less than 50 nM.

CCNc1nc(Nc2cccc3c2cnn3C(C)(C)C#N)nc2[nH]cc(Cl)c12 [Example 156, 2-(4-((5-chloro-4-(ethylamino)-7H-pyrrolo[2,3-d]pyrimidin-2-yl)amino)-1H-indazol-1-yl)-2-methylpropanenitrile] was tested. Which IC50 did it give?
The IC50 was less than 50 nM.

Which IC50 does the source give for CC(C)(C#N)n1ncc2c(Nc3ncc(C(F)(F)F)c(NC4CC(O)C4)n3)cccc21 (stereo not drawn) [Example 157, 2-[4-[[4-[(3-hydroxycyclobutyl)amino]-5-(trifluoromethyl)pyrimidin-2-yl]amino]indazol-1-yl]-2-methyl-propanenitrile] here?
Its IC50 is less than 50 nM.

With CCOc1nc(Nc2cccc3c2cnn3S(C)(=O)=O)nc2[nH]cc(Cl)c12 [Example 158, 5-chloro-4-ethoxy-N-(1-methylsulfonylindazol-4-yl)-7H-pyrrolo [2,3-d]pyrimidin-2-amine] as the compound, how does the IC50 read?
Its IC50 is less than 50 nM.

How did the IC50 turn out when O=S(=O)(C1CC1)n1ncc2c(Nc3ncc(C(F)(F)F)c(NC4CC4)n3)ccnc21 [Example 159, N^4-cyclopropyl-N^2-(1-(cyclopropylsulfonyl)-1H-pyrazolo[3,4-b]pyridin-4-yl)-5-(trifluoromethyl)pyrimidine-2,4-diamine] was run?
Its IC50 is less than 50 nM.

FC(F)(F)c1cnc(Nc2ccc3c4c2cnn4CCCO3)nc1NC1CC1 [Example 160, N^4-cyclopropyl-N^2-(9-oxa-1,2-diazatricyclo[6.4.1.04,13]trideca-2,4,6,8(13)-tetraen-5-yl)-5-(trifluoromethyl)pyrimidine-2,4-diamine] was tested. Which IC50 did it give?
The IC50 was less than 50 nM.

How did the IC50 turn out when CNc1nc(Nc2ccc3c4c2cnn4CCCO3)ncc1C(F)(F)F [Example 161] was run?
Its IC50 is less than 50 nM.

How did the IC50 turn out when CCOc1nc(Nc2cccc3c2cnn3C(C)(C)C#N)nc2[nH]cc(Cl)c12 [Example 162, 2-[4-[(5-chloro-4-ethoxy-7H-pyrrolo[2,3-d]pyrimidin-2-yl)amino]indazol-1-yl]-2-methyl-propanenitrile] was run?
The IC50 was less than 50 nM.

For CS(=O)(=O)CCn1ncc2c(Nc3ncc(C(F)(F)F)c(NC4CCC4)n3)cccc21 [Example 163, N^4-cyclobutyl-N^2-(1-(2-(methylsulfonyl)ethyl)-1H-indazol-4-yl)-5-(trifluoromethyl)pyrimidine-2,4-diamine], which IC50 is on record?
The IC50 was less than 50 nM.

How did the IC50 turn out when CCNc1nc(Nc2cccc3c2cnn3CC(C)(C)O)ncc1C(F)(F)F [Example 164, 1-[4-[[4-(ethylamino)-5-(trifluoromethyl)pyrimidin-2-yl]amino]indazol-1-yl]-2-methyl-propan-2-ol] was run?
Its IC50 is less than 50 nM.

How did the IC50 turn out when CCOc1nc(Nc2cccc3c2cnn3CC(F)F)nc2[nH]cc(Cl)c12 [Example 165, 5-chloro-N-[1-(2,2-difluoroethyl)indazol-4-yl]-4-ethoxy-7H-pyrrolo[2,3-d]pyrimidin-2-amine] was run?
Its IC50 is less than 50 nM.

With C[C@@]1(n2ncc3c(Nc4ncc(C(F)(F)F)c(NC5CC5)n4)cccc32)CCOC1=O [Example 166, (R)-3-(4-((4-(cyclopropylamino)-5-(trifluoromethyl)pyrimidin-2-yl)amino)-1H-indazol-1-yl)-3-methyldihydrofuran-2(3H)-one] as the compound, how does the IC50 read?
Its IC50 is less than 50 nM.

With C[C@]1(n2ncc3c(Nc4ncc(C(F)(F)F)c(NC5CC5)n4)cccc32)CCOC1=O [Example 167, (S)-3-(4-((4-(cyclopropylamino)-5-(trifluoromethyl)pyrimidin-2-yl)amino)-1H-indazol-1-yl)-3-methyldihydrofuran-2(3H)-one] as the compound, how does the IC50 read?
Its IC50 is less than 50 nM.

With FC(F)(F)c1cnc(Nc2cccc3c2cnn3CC2CC2)nc1NC1CC1 [Example 168, N^4-cyclopropyl-N^2-(1-(cyclopropylmethyl)-1H-indazol-4-yl)-5-(trifluoromethyl)pyrimidine-2,4-diamine] as the compound, how does the IC50 read?
Its IC50 is less than 50 nM.

How did the IC50 turn out when CC(C)n1ncc2c(Nc3ncc(C(F)(F)F)c(NC4CC4)n3)cccc21 [Example 169, N4-cyclopropyl-N2-(1-isopropyl-1H-indazol-4-yl)-5-(trifluoromethyl)pyrimidine-2,4-diamine] was run?
The IC50 was less than 50 nM.

Which IC50 does the source give for O=S(=O)(CCn1ncc2c(Nc3ncc(C(F)(F)F)c(NC4CC4)n3)cccc21)C1CC1 [Example 170, N^4-cyclopropyl-N^2-(1-(2-(cyclopropylsulfonyl)ethyl)-1H-indazol-4-yl)-5-(trifluoromethyl)pyrimidine-2,4-diamine] here?
The IC50 was less than 50 nM.

How did the IC50 turn out when CCS(=O)(=O)CCn1ncc2c(Nc3ncc(C(F)(F)F)c(NC4CC4)n3)cccc21 [Example 171, N^4-cyclopropyl-N^2-(1-(2-(ethylsulfonyl)ethyl)-1H-indazol-4-yl)-5-(trifluoromethyl)pyrimidine-2,4-diamine] was run?
The IC50 was less than 50 nM.

For CC(C)(O)Cn1ncc2c(Nc3ncc(C(F)(F)F)c(NC4CC4)n3)ccc(F)c21 [Example 172, 1-(4-((4-(cyclopropylamino)-5-(trifluoromethyl)pyrimidin-2-yl)amino)-7-fluoro-1H-indazol-1-yl)-2-methylpropan-2-ol], which IC50 is on record?
The IC50 was less than 50 nM.

CC(C)(O)Cn1ncc2c(Nc3ncc(C(F)F)c(NC4CC4)n3)cccc21 [Example 173, 1-[4-[[4-(cyclopropylamino)-5-(difluoromethyl)pyrimidin-2-yl]amino]indazol-1-yl]-2-methyl-propan-2-ol] was tested. Which IC50 did it give?
The IC50 was less than 50 nM.
